According to patent US7645736B2, “Integrin inhibitors for the treatment of eye diseases” (Merck Patent GmbH, priority 2004, dated 2010):

System: bFGF-stimulated corneal angiogenesis
Assay: rabbit corneal micropocket model, single intravitreal injection
Type: in vivo
Details: single (day 0) intravitreal, 100 μL, drug = 2 mg/eye; for inhibition [%] of neovascularisation area: vs saline control
Description: (1996). In this model angiogenesis is stimulated by implantation of Hydron pellets containing an angiogenesis stimulating cytokine like, for example, fibroblast growth factor (FGF) or vascular endothelial growth factor (VEGF) into the cornea. After implantation the active compound to be tested is administered by paralimbal intravitreal injection. Effect on neovascularisation is measured after predetermined time intervals by visual examination using a microscope, photographing and computer-assisted quantification of photographs.
The effect of intravitreal application of an αvβ3 and/or αvβ5 inhibitor was examined in rabbit corneal micropocket model as described by Shaffer R. W. (see above). As an example for an αvβ3 and/or αvβ5 inhibitor 2-(2,2-dimethylpropyloxycarboxamido)-3{3,4-dihydro-2-[N-(2-imidazoly)-carbamoylethyl]-2H-1,4-benzoxazin-3-on-6-yl}propionic acid was used in the experiment. For induction of angiogenesis Hydron pellets containing basic fibroblast growth factor (bFGF) were used. Preparation of bFGF containing implants was performed by casting Hydron [poly(hydroxyethyl)methacrylate] in specially prepared Teflon pegs that have a 2.5 mm core drilled into their surfaces. Approximately 12 μl of casting material was placed into each peg and polymerized overnight in a sterile hood, then sterilized by ultraviolet irradiation.
The experiment consisted of 10 animals; in each eye of the animals one individual pellet was implanted into a surgically created “pocket” in the mid stroma of the rabbit cornea. The surgical procedure was done under sterile technique using a Moeller-Wedel Microflex operating microscope (Haag-Streit Company, Germany) equipped with a beamsplitter and camera for photographically recording individual comeas. A 69 Beaver blade was used to create a 3 mm by 5 mm “pocket” to a depth of half the comeal thickness. The stroma was dissected peripherally using an spatula and the pellet implanted with its peripheral margin 2 mm from limbus. […] For comparison the same procedure was performed in the other 5 animals using saline only. Following implantation the eyes Were photographed and the area of neovascularisation measured after predetermined intervals.

## CC(C)(C)COC(=O)NC(Cc1ccc2c(c1)NC(=O)C(CCC(=O)Nc1ncc[nH]1)O2)C(=O)O (centres unmarked) [Drug, 2-(2,2-dimethylpropyloxycarboxamido)-3-{3,4-dihydro-2-[N-(2-imidazolyl)-carbamoylethyl]-2H-1,4-benzoxazin-3-on-6-yl}propionic acid]
5 days post implantation
  mean area [mm^2] of neovascularisation: 1.71 mm^2
  inhibition [%] of neovascularisation area: 56.3%
7 days post implantation
  mean area [mm^2] of neovascularisation: 4.65 mm^2
  inhibition [%] of neovascularisation area: 13.4%
10 days post implantation
  mean area [mm^2] of neovascularisation: 5.10 mm^2
  inhibition [%] of neovascularisation area: 45.8%
14 days post implantation
  mean area [mm^2] of neovascularisation: 9.94 mm^2
  inhibition [%] of neovascularisation area: 40.0%
